Assay results: US20190374536A1, “METHODS OF USING FASN INHIBITORS” (FORMA Therapeutics, Inc., priority 2016, published 2019)
Marks after values point to notes of the source that are not given here.

Assays:
[1] = tested on: HFD rat model; assay: High fat diet (HFD) fed rat model: steatosis, plasma/liver TG, plasma leptin; type: in vivo; conditions: HFD rats, 5 mg/kg QD
From the text: Steatosis is caused by the accumulation of triglycerides (TG) in the liver, and as such, decreases in TG may represent a potential marker for activity on steatosis. The obese phenotype of HFD model is dependent on the incorporation of high dietary fat and DNL-derived fat. […] The key endpoints of this study were to evaluate the relationship between dose schedule and exposure with changes in liver steatosis score and liver TG. For these studies, male SD rats (6-8 week old) were fed a high fat diet (D124942, Research Diets Inc.) for four weeks to develop the obese phenotype and then sorted into treatment groups (N=8) based on mean body weight. […] Rosiglitazone 5 mg/kg QD was included as a positive control. Plasma and serum samples were collected weekly throughout the study. After 28 days of treatment, animals were sacrificed and liver and plasma samples were collected. Livers were fixed in formalin, processed for H&E staining, and evaluated by a pathologist specializing in NASH.
Two HFD studies were conducted. […] The second HFD study investigated the endpoints of steatosis and liver and plasma markers of lipogenesis (including TG and FFA).

[2] = tested on: HSD rat model; assay: High-sucrose diet (HSD) fed rat model: plasma/liver TG, plasma leptin; type: in vivo; conditions: HSD rats, 5 mg/kg QD
From the text: A HSD represents an alternative experimental model for obesity and steatosis. In this model, 60-70% of the caloric intake is from simple carbohydrates, and thus, the primary source of increased TG is through DNL.
Male SD rats (6-8 week old) were fed a HSD (D10001, Research Diets Inc.) for six weeks to develop the obese phenotype and then sorted into treatment groups (N=8 each) based on mean body weight.

[3] = tested on: TH17 cells differentiated in-vitro; assay: TH17 differentiation assay: inhibition of IL-17 secretion; type: cell-based; design: activity: dose or concentration left out as unconfirmed; conditions: Homo sapiens; for inhibition at 1 µM: IL-17 secretion; for activity: TH17 cells differentiated in-vitro, read-out: IL17 secretion (% of DMSO)
From the text: CD4+ T cells were isolated using CD4+ T cell isolation kit (Miltenyi Biotech), activated with CD3/CD28 microbeads and cultured for 7-10 days in the presence of IL-1β, IL-6, IL-21, I-23 and TGFβ and test compounds. Cells cultured with DMSO or without cytokines and/or microbeads were used as negative controls.
Read out: (1) At day 7-10, the supernatants were collected and tested for soluble 1-17. (2) Cells were also harvested and stained for intra-cellular IL-17A. (3) Cells were also stained separately by Annexin/PI for cell viability. (4) Pictures of cultures were taken for each condition.

Structure (SMILES)	inhibition at 1 µM [3] [%]	activity [3] [%]	other results
CN(CCOc1ccc(CC2SC(=O)NC2=O)cc1)c1ccccn1 (stereo not shown) [Rosiglitazone]			Plasma TG % Decrease of treatment group (mean) vs. vehicle treated HFD group (mean) ([1]; Day 14): 52.5%; Plasma TG Raw Data (Mean ± SEM) ([1]; Day 14): 0.48 ± 0.02 mmol/L; Plasma TG % Decrease of treatment group (mean) vs. vehicle treated HFD group (mean) ([1]; Day 26): 60.0%; Plasma TG Raw Data (Mean ± SEM) ([1]; Day 26): 0.46 ± 0.05 mmol/L; Liver TG % Decrease of treatment group (mean) vs. vehicle treated HFD group (mean) ([1]; Day 28): 70.0%; Liver TG Raw Data (Mean ± SEM) ([1]; Day 28): 17.2 ± 0.8 µmol/g; Plasma Leptin (Mean ± SEM) ([1]; Day 28): 16.0 ± 1.2 ng/mL; Plasma TG % Decrease of treatment group (mean) vs. vehicle treated HSD group (mean) ([2]; Day 14): 60.6%; Plasma TG Raw Data (Mean ± SEM) ([2]; Day 14): 1.07 ± 0.10 mmol/L; Plasma TG % Decrease of treatment group (mean) vs. vehicle treated HSD group (mean) ([2]; Day 26): 62.3%; Plasma TG Raw Data (Mean ± SEM) ([2]; Day 26): 1.24 ± 0.17 mmol/L; Liver TG % Decrease of treatment group (mean) vs. vehicle treated HSD group (mean) ([2]; Day 28): 41.2 * %; Liver TG Raw Data (Mean ± SEM) ([2]; Day 28): 8.5 ± 1.5 µmol/g; Plasma Leptin (Mean ± SEM) ([2]; Day 28): 12.6 ± 2.5 ng/mL
O=C(c1ccc(-c2nc3ccc(F)cc3o2)cc1)N1CCN(C(=O)C2(O)CC2)CC1 [compound 1]	46	54	
O=C(c1ccc(-c2nc3ccc(Cl)cc3o2)cc1)N1CCN(C(=O)C2(O)CC2)CC1 [compound 2]	79	21	
O=C(c1ccc(-c2cc(Cl)ccc2F)cc1)N1CCN(C(=O)C2(O)CC2)CC1 [compound 3]	75	25	
Cn1cnc2cc(-c3ccc(C(=O)N4CCN(C(=O)C5(O)CC5)CC4)c(F)c3)ccc21 [compound 4]	85	15	
Cn1ncc2ccc(-c3ccc(C(=O)N4CCN(C(=O)C5(N)CC5)CC4)cc3)cc21 [compound 5]	74	26	
O=C(c1ccc(-c2nc3ccc(F)cc3o2)cc1F)N1CCN(C(=O)C2(O)CC2)CC1 [compound 6]	53	47	
C[C@@H]1CN(C(=O)c2ccc(-c3nc4ccc(F)cc4o3)cc2)CCN1C(=O)C1(O)CC1 [compound 7]	66	34	
C[C@H]1CN(C(=O)c2ccc(-c3ccc4c(c3)ncn4C)cc2F)CCN1C(=O)C1(O)CC1 [compound 8]	77	23	
Cn1cnc2cc(-c3ccc(C(=O)N4CCN(C(=O)C5(O)CC5)CC4)cc3)ccc21 [compound 9]	76	24	
C[C@H]1CN(C(=O)c2ccc(-c3nc4ccc(Cl)cc4o3)cc2)CCN1C(=O)C1(O)CC1 [compound 11]	67	33	
